In PubChem BioAssay AID434951 (Broad Institute, 2010):
Activity calls are given as the source filed them.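 Rule for the calls: active = a fitted half-maximal concentration EC50 for the rise in nuclear signal no higher than ten times the top dose tested; inconclusive = flat fit with activity between 30% and 70%, or unusable fit; inactive = EC50 beyond ten times the top dose.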

Each molecule was assayed against Hypoxia-inducible factor 1-alpha (Homo sapiens) (UniProt Q16665) (assay: HIF pathway activation, GFP-HIF1alpha translocation – imaging, fluorescence, U2OS GFP-HIF1alpha, confirmation (AID 434951)). Conditions: U2OS GFP-HIF1alpha nuclear intensity, high-content imaging.
Sequence of Hypoxia-inducible factor 1-alpha (Homo sapiens) (Q16665 whole entry, looked up): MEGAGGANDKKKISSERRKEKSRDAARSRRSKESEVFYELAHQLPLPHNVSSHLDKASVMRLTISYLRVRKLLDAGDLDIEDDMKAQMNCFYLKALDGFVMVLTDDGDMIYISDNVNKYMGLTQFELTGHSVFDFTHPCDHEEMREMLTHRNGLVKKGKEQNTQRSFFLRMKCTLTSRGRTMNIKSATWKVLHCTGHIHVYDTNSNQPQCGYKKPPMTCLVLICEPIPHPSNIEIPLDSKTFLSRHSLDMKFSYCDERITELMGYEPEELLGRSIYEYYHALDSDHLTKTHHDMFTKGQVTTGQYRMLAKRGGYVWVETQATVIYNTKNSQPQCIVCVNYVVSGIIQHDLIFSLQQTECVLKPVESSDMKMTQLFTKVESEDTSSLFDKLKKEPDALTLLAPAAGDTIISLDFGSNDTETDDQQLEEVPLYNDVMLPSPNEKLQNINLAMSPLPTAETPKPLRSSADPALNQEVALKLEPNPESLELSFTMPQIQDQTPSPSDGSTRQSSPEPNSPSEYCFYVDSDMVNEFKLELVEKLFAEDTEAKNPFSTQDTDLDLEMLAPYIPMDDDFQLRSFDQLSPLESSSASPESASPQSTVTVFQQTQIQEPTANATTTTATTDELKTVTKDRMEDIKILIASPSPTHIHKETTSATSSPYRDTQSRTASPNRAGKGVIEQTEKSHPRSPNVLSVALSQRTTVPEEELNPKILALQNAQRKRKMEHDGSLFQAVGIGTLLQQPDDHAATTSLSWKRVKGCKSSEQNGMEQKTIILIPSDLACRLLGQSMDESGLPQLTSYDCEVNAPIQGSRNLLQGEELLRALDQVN
In the case of Cc1ccc(S(=O)(=O)N2CCN(c3ccccn3)CC2)cc1, the EC50 is reported as > 35 µM (inactive). With CCCCn1c(=O)c2c(O)cc(=O)oc2c2ccccc21 the EC50 was > 35 µM (inactive). In the case of COc1cccc(/C=N/NC(=O)c2ccc(-c3ccccc3)cc2)c1O, the EC50 is reported as 30.5 µM. CCN1CCN(c2ncnc3ccc(Br)cc23)CC1 was tested, and the EC50 was > 35 µM (inactive). With Oc1c(C(Nc2cccc(C(F)(F)F)c2)c2ccncc2)ccc2cccnc12 (configuration not stated) the EC50 was 6.49 µM. In the case of COc1ccc(CNS(=O)(=O)c2cc3c4c(c2)C(C)C(=O)N4CCC3)cc1 (configuration not stated), the EC50 is reported as > 35 µM (inactive). Cc1cc(NC(=O)c2ccccc2)n(-c2nc3ccccc3[nH]2)n1 was tested, and the EC50 was 27 µM. For COc1ccc(Nc2nc(N/N=C/c3ccc(N(C)C)cc3)nc(C)c2[N+](=O)[O-])cc1, the EC50 was > 35 µM (inactive). In the case of COc1ccc2nc(NC(=O)c3cccs3)sc2c1, the EC50 is reported as > 35 µM (inactive). With COc1ccc2[nH]c(C(=O)N/N=C/c3ccc(O)cc3O)cc2c1 the EC50 was 8.67 µM. Cc1ccc(C)c(S(=O)(=O)N2CCN(Cc3ccc(O)c4ncccc34)CC2)c1 was tested, and the EC50 was 6.84 µM. For CCCCOc1ccc(C(=O)NCC(=O)OC2CCOC2=O)cc1 (configuration not stated), the EC50 was 34.7 µM. CN(CCS(=O)(=O)c1ccc(Cl)cc1)Cc1cccnc1 was tested, and the EC50 was > 35 µM (inactive). For COc1cccc(Nc2n[nH]c(=S)s2)c1, the EC50 was > 35 µM (inactive). For COc1ccc(OC)c(CNC(=O)C2CCCN(S(=O)(=O)N3CCC(C)CC3)C2)c1 (configuration not stated), the EC50 was > 35 µM (inactive). For Oc1c(C(Nc2ccccn2)c2ccccn2)ccc2cccnc12 (configuration not stated), the EC50 was 3.98 µM. With CCCNC(=O)c1cc2nc(-c3ccccc3)cc(C(F)(F)F)n2n1 the EC50 was > 35 µM (inactive). For CCN(CCCNC(=O)CCc1nc(-c2ccc(OC)cc2)no1)c1cccc(C)c1, the EC50 was > 35 µM (inactive). With CC(C)(C)NC(=O)COC(=O)c1ccc(Cl)nc1 the EC50 was > 35 µM (inactive). For Cc1[nH]n(-c2ccccc2)c(=O)c1N=Nc1ccc2c(c1)OCCO2, the EC50 was > 35 µM (inactive). O=C(CSc1nnc(-c2ccco2)n1Cc1ccco1)NCc1ccccc1 was tested, and the EC50 was > 35 µM (inactive). COc1ccc(CCNC(=O)c2cc(-c3ccco3)on2)cc1OC was tested, and the EC50 was 10.8 µM. With Oc1ccc(-c2cn3ccccc3n2)cc1O the EC50 was > 35 µM (inactive). O=C(N/N=C(\Cc1ncc[nH]1)c1ccccc1)c1ccccc1 was tested, and the EC50 was > 35 µM (inactive). With OCCCNc1c2ccccc2nc2ccccc12 the EC50 was > 35 µM (inactive). With Cc1ccc(S(=O)(=O)N(C)CC(=O)NCCCn2ccnc2)cc1 the EC50 was > 35 µM (inactive). COc1cc(SC)ccc1C(=O)NCCc1ccccc1 was tested, and the EC50 was > 35 µM (inactive). With COc1cccc(-c2cc(C(F)(F)F)n3nc(C(=O)N4CCC5(CC4)OCCO5)cc3n2)c1 the EC50 was > 35 µM (inactive). With Cc1cc(Oc2ccccc2)nc(N2CCOCC2)n1 the EC50 was > 35 µM (inactive). With CCCN(CCC)C(=S)Nc1cc(C(=O)OC)ccc1C(=O)OC the EC50 was > 35 µM (inactive). For O=C(CSC1=NNC(c2ccccn2)S1)Nc1ccc(C(F)(F)F)cc1 (configuration not stated), the EC50 was 10.4 µM. CC(=O)NC(c1ccc(C)cc1)c1cc(Cl)c2cccnc2c1O (configuration not stated) showed an EC50 of 16.6 µM. COc1cc2c(cc1OC)C(C)N(S(=O)(=O)c1ccc(Cl)nc1)CC2 (configuration not stated) was tested, and the EC50 was > 35 µM (inactive). In the case of CCOC(=O)CCS(=O)(=O)c1nc(-c2ccccc2)cc(C(F)(F)F)n1, the EC50 is reported as > 35 µM (inactive). Cc1nnc(-c2ccccc2)nc1N(C)C was tested, and the EC50 was > 35 µM (inactive). Molecule O=C(NCCCn1ccnc1)c1cc(-c2ccccc2)on1 has an EC50 of 3.8 µM. With CCOC(=O)/C(=N\Nc1cccc(C(F)(F)F)c1)N1CCOCC1 the EC50 was > 35 µM (inactive). For CCOC(=O)C1CCCN(C(=O)c2ccc3oc(CCc4ccccc4)nc3c2)C1 (configuration not stated), the EC50 was > 35 µM (inactive). For O=C(Nc1nc(-c2ccccn2)cs1)c1cc(Cl)ccc1[N+](=O)[O-], the EC50 was 9.95 µM. CC[C@@]1(O)C(=O)OCc2c1cc1n(c2=O)Cc2cc3c(N)cccc3nc2-1 was tested, and the EC50 was > 35 µM (inactive). For CCOC(=O)c1c(C)nc2cc(C)ccn12, the EC50 was > 35 µM (inactive). With O=C(N/N=C(\c1ccccc1)c1ccccn1)c1ccccc1Cl the EC50 was 11.2 µM. Molecule O=C(Nc1ccccc1O)c1ccc(NS(=O)(=O)c2cccc3cccnc23)cc1 has an EC50 of 6.84 µM. In the case of CCOC(=O)CN(C(=O)COc1nc(C)cc(C)c1C#N)c1cccc(Cl)c1, the EC50 is reported as > 35 µM (inactive). For Cc1nc(NCCc2ccccc2)c(C#N)c(C)c1[N+](=O)[O-], the EC50 was > 35 µM (inactive). For CCN1CCN(c2ccc([N+](=O)[O-])cc2C=C2C(=O)NC(=O)NC2=O)CC1, the EC50 was > 35 µM (inactive). In the case of Cc1cc(/C=N/N2CCN(C)CC2)c(C)n1-c1ccc(Cl)cc1, the EC50 is reported as > 35 µM (inactive). COc1ccc(NC(=S)c2ccc(N(C)C)cc2)cc1 was tested, and the EC50 was > 35 µM (inactive). Cc1cccnc1Nc1nc(-c2ccccn2)cs1 was tested, and the EC50 was 3.83 µM. CCN(CC)c1ccc(NC(=O)Cn2nnc(-c3cccc(OC)c3OC)n2)c(C)c1 was tested, and the EC50 was > 35 µM (inactive). With CCOC(=O)C(=Cc1ccc(OCc2ccc([N+](=O)[O-])cc2)c(OC)c1)C(=O)OCC the EC50 was 7.32 µM. With CSc1nc(C)cc(C)c1C#N the EC50 was > 35 µM (inactive).
